Format in all cases: functional
The test system of experiment [1] is Pseudomonas aeruginosa. Kind of experiment: Antibacterial activity against BL (+) Pseudomonas aeruginosa ATCC 27853 assessed as inhibition of bacterial growth incubated for 18 hrs by agar dilution method. (In general: In agar dilution the substance is mixed into plates at graded concentrations.)
For experiment [2], the system named is Klebsiella pneumoniae. Put plainly: Antibacterial activity against NDM-1 (+) Klebsiella pneumoniae 2146 assessed as inhibition of bacterial growth incubated for 18 hrs by agar dilution method.
Experiment [3] concerns Klebsiella pneumoniae. Kind of experiment: Antibacterial activity against NDM-1 (+) Klebsiella pneumoniae 09-20 assessed as inhibition of bacterial growth incubated for 18 hrs by agar dilution method.
Experiment [4] relates to Escherichia coli. Kind of experiment: Antibacterial activity against ESBLs (+) Escherichia coli 16-1 assessed as inhibition of bacterial growth incubated for 18 hrs by agar dilution method.
Experiment [5] has as its system Escherichia coli. Kind of experiment: Antibacterial activity against ESBLs (-) Escherichia coli ATCC 25922 assessed as inhibition of bacterial growth incubated for 18 hrs by agar dilution method.
The subject of experiment [6] is Escherichia coli. Put plainly: Antibacterial activity against NDM-1 (+) Escherichia coli CDC 1001728 assessed as inhibition of bacterial growth incubated for 18 hrs by agar dilution method.
Experiment [7] has as its system Klebsiella pneumoniae. Put plainly: Antibacterial activity against ESBLs (+) Klebsiella pneumoniae ATCC 700603 assessed as inhibition of bacterial growth incubated for 18 hrs by agar dilution method.
Experiment [8] has as its system Klebsiella pneumoniae. Put plainly: Antibacterial activity against ESBLs (+) Klebsiella pneumoniae 16-14 assessed as inhibition of bacterial growth incubated for 18 hrs by agar dilution method.
The subject of experiment [9] is Escherichia coli. Put plainly: Antibacterial activity against mcr-1 (+) Escherichia coli 08-85 assessed as inhibition of bacterial growth incubated for 18 hrs by agar dilution method.
Experiment [10] concerns Pseudomonas aeruginosa. Put plainly: Antibacterial activity against Pseudomonas aeruginosa PAO1 assessed as inhibition of bacterial growth incubated for 18 hrs by agar dilution method.

Values after ≈ are worked out from the molar mass of the structure shown.

For `C[C@H]1[C@H](NC(=O)/C(=N\OCC(=O)N2C3CCCC3C[C@@H]2C(=O)O)c2csc(N)n2)C(=O)N1S(=O)(=O)O` (stereo partly drawn), the MIC was over 64 µg/mL in experiment [1]; over 64 µg/mL in experiment [2]; 8 µg/mL (≈ 14.7 µM) in experiment [3]; 1 µg/mL (≈ 1.84 µM) in experiment [4]; 1 µg/mL (≈ 1.84 µM) in experiment [5]; 16 µg/mL (≈ 29.4 µM) in experiment [6]. In addition, the MIC was over 64 µg/mL in experiment [7], 64 µg/mL (≈ 118 µM) in experiment [8], over 64 µg/mL in [9] and over 64 µg/mL in experiment [10].

In the case of `C#CCO/N=C(\C(=O)N[C@@H]1C(=O)N(S(=O)(=O)O)[C@H]1C)c1nsc(N)n1`, the minimal inhibitory concentration (MIC) was 64 µg/mL (≈ 165 µM) in experiment [1]; over 64 µg/mL in [2]; over 64 µg/mL in experiment [3]; 16 µg/mL (≈ 41.2 µM) in experiment [4]; 8 µg/mL (≈ 20.6 µM) in [5]; 32 µg/mL (≈ 82.4 µM) in experiment [6]. For the same molecule, the minimum inhibitory concentration (MIC) in [7] is over 64 µg/mL; in experiment [8], over 64 µg/mL; in experiment [9], over 64 µg/mL; in experiment [10] it was 16 µg/mL (≈ 41.2 µM).

For the molecule `C[C@H]1[C@H](NC(=O)/C(=N\OCC(=O)N2CCC[C@@H]2C(=O)O)c2csc(N)n2)C(=O)N1S(=O)(=O)O`, the minimum inhibitory concentration (MIC) in [1] is over 64 µg/mL; in [2] it was over 64 µg/mL; in experiment [3], 2 µg/mL (≈ 3.96 µM); in [4], 0.12 µg/mL (≈ 0.238 µM); in experiment [5] it was 0.12 µg/mL (≈ 0.238 µM); in [6], 8 µg/mL (≈ 15.9 µM). Also, the minimum inhibitory concentration (MIC) is over 64 µg/mL in experiment [7], 16 µg/mL (≈ 31.7 µM) in experiment [8], over 64 µg/mL in experiment [9] and 32 µg/mL (≈ 63.4 µM) in experiment [10].

With `C[C@H]1[C@H](NC(=O)/C(=N\OCC(=O)N2CCC(C(=O)O)C2)c2csc(N)n2)C(=O)N1S(=O)(=O)O` (stereo partly drawn), the minimum inhibitory concentration (MIC) in [1] is over 64 µg/mL; in [2], over 64 µg/mL; in [3] it was 32 µg/mL (≈ 63.4 µM); in experiment [4], 2 µg/mL (≈ 3.96 µM); in [5], 1 µg/mL (≈ 1.98 µM); in [6], 16 µg/mL (≈ 31.7 µM). Besides, the minimum inhibitory concentration (MIC) in [7], in [8], in experiment [9] and in [10] was over 64 µg/mL in each case.

As for `C[C@@H](O/N=C(\C(=O)N[C@@H]1C(=O)N(OS(=O)(=O)O)C1(C)C)c1csc(N)n1)C(=O)O`, the minimal inhibitory concentration (MIC) in [1] came to 64 µg/mL (≈ 142 µM); in experiment [2], 8 µg/mL (≈ 17.7 µM); in experiment [3], 1 µg/mL (≈ 2.22 µM); in experiment [4], 0.5 µg/mL (≈ 1.11 µM); in experiment [5] it was 1 µg/mL (≈ 2.22 µM); in experiment [7], 4 µg/mL (≈ 8.86 µM). The MIC in experiment [8] was 0.5 µg/mL (≈ 1.11 µM); in experiment [9] it was 1 µg/mL (≈ 2.22 µM); in [10] it was 64 µg/mL (≈ 142 µM).

With `C[C@H]1[C@H](NC(=O)/C(=N\OCC(=O)N2CCCC(C(=O)O)C2)c2csc(N)n2)C(=O)N1S(=O)(=O)O` (stereo partly drawn), the MIC was over 64 µg/mL in experiment [1]; over 64 µg/mL in experiment [2]; 64 µg/mL (≈ 123 µM) in experiment [3]; 2 µg/mL (≈ 3.86 µM) in experiment [4]; 0.5 µg/mL (≈ 0.964 µM) in experiment [5]; 16 µg/mL (≈ 30.9 µM) in [6]. For the same molecule, the minimum inhibitory concentration (MIC) in experiment [7], in experiment [8], in experiment [9] and in experiment [10] was over 64 µg/mL throughout.

Consider `C[C@H]1COc2c(N3CCN(C)CC3)c(F)cc3c(=O)c(C(=O)O)cn1c23` [LEVOFLOXACIN ANHYDROUS], for which the minimal inhibitory concentration (MIC) is 128 µg/mL (≈ 354 µM) in experiment [2]; 16 µg/mL (≈ 44.3 µM) in experiment [3]; at most 0.03 µg/mL in [5]; 8 µg/mL (≈ 22.1 µM) in [6]; 16 µg/mL (≈ 44.3 µM) in experiment [9].

For the molecule `C[C@H](O/N=C(\C(=O)N[C@@H]1C(=O)N(OS(=O)(=O)O)C1(C)C)c1csc(N)n1)C(=O)O`, the minimum inhibitory concentration (MIC) in experiment [1] was 16 µg/mL (≈ 35.4 µM); in experiment [2] it was 4 µg/mL (≈ 8.86 µM); in experiment [3], 0.5 µg/mL (≈ 1.11 µM); in [4] it was 0.125 µg/mL (≈ 0.277 µM); in [5], 0.25 µg/mL (≈ 0.554 µM); in experiment [7], 8 µg/mL (≈ 17.7 µM). In addition, the MIC came to 0.25 µg/mL (≈ 0.554 µM) in experiment [8], 0.25 µg/mL (≈ 0.554 µM) in experiment [9] and 16 µg/mL (≈ 35.4 µM) in experiment [10].

By MIC is commonly meant the least concentration at which growth counts as inhibited.

The values above are taken from ChEMBL document CHEMBL5625252, “Synthesis of peptidomimetics as antibiotic adjuvants for combination with aztreonam to combat MDR Pseudomonas aeruginosa” (Eur J Med Chem, 2023).
